Experiments:
[1] = system: green foxtail (Se); assay: Test Example 5: crop plant selectivity by upland field soil treatment (wheat), herbicidal effects; type: in vivo; parameters: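 grade of growth control; 5 = at least 90%; 4 = 70 to 90%; 3 = 50 to 70%; 2 = 30 to 50%; 1 = 10 to 30%; 0 = under 10%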; settings: 21st day after application
Summary of the method: (§1)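 A greenhouse pot test in which wheat and weeds share sand-filled pots; after the soil application, damage is graded against set standards three weeks later.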

[2] = system: slender amaranth (Am); assay: as above; type: in vivo; parameters: scale not given here; settings: 21st day after application
Summary of the method: as §1

[3] = system: common lambsquarters (Ch); assay: as above; type: in vivo; parameters: scale not given here; settings: 21st day after application
Summary of the method: as §1

[4] = system: pale smartweed (Po); assay: as above; type: in vivo; parameters: scale not given here; settings: 21st day after application
Summary of the method: as §1

[5] = system: common lambsquarters (Ch); assay: Test Example 4: crop plant selectivity by upland field soil treatment (cotton), herbicidal effects; type: in vivo; parameters: scale not given here; settings: evaluated 21st day after application
Summary of the method: (§2)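 Cotton and weeds (incl. China jute, pale smartweed, slender amaranth) sown in sand-filled pots and covered with soil, then soil-treated. Grown in greenhouse; herbicidal effect and cotton phytotoxicity scored on day 21 after application against a rating standard.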

[6] = system: cotton (Go); assay: Test Example 4: crop plant selectivity by upland field soil treatment (cotton), phytotoxicity; type: in vivo; parameters: scale not given here; settings: evaluated 21st day after application
Summary of the method: as §2

[7] = system: corn (Ze); assay: Test Example 11: crop plant selectivity by upland field foliage treatment (corn), phytotoxicity
Summary of the method: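 Corn and the weed species were sown together in sand-filled pots and grown in a greenhouse for 2 weeks before foliar treatment. Herbicidal effect was scored on day 14 after treatment against a graded standard scale, with corn phytotoxicity scored alongside.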

[8] = system: China jute (Ab); assay: Test Example 9: crop plant selectivity by upland field foliage treatment (wheat), herbicidal effects; type: in vivo; parameters: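 grade of growth control; 5 = at least 90%; 4 = 70 to 90%; 3 = 50 to 70%; 2 = 30 to 50%; 1 = 10 to 30%; 0 = under 10%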; settings: dose 1.6 g ai/10a, 14th day after treatment
Summary of the method: (§3)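 Sand-filled pot, wheat + weeds co-sown; greenhouse 2 wk, then foliage treatment; greenhouse culture continued; visual scoring of weed control and crop injury at 14 d post-treatment per grading scale.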

[9] = system: slender amaranth (Am); assay: as above; type: in vivo; parameters: scale not given here; settings: dose 1.6 g ai/10a, 14th day after treatment
Summary of the method: as §3

[10] = system: common lambsquarters (Ch); assay: as above; type: in vivo; parameters: scale not given here; settings: dose 1.6 g ai/10a, 14th day after treatment
Summary of the method: as §3

[11] = system: pale smartweed (Po); assay: as above; type: in vivo; parameters: scale not given here; settings: dose 1.6 g ai/10a, 14th day after treatment
Summary of the method: as §3

[12] = upland field foliage treatment, dose 1.6 g ai/10a, 14th day after treatment

Row | SMILES | Herbicidal effects Se ([1]; dose 1.6 g ai/10a) | Herbicidal effects Se ([1]; dose 6.3 g ai/10a) | Herbicidal effects Am ([2]; dose 1.6 g ai/10a) | Herbicidal effects Am ([2]; dose 6.3 g ai/10a) | Herbicidal effects Ch ([3]; dose 1.6 g ai/10a) | Herbicidal effects Ch ([3]; dose 6.3 g ai/10a) | Herbicidal effects Po ([4]; dose 1.6 g ai/10a) | Herbicidal effects Po ([4]; dose 6.3 g ai/10a) | Herbicidal effects Ch ([5]; dose 1.6 g ai/10 a) | Herbicidal effects Ch ([5]; dose 6.3 g ai/10 a) | Phytotoxicity Go ([6]; dose 1.6 g ai/10 a) | Phytotoxicity Go ([6]; dose 6.3 g ai/10 a) | Phytotoxicity Ze [7, 12] | Herbicidal effects Ab [8] | Herbicidal effects Am [9] | Herbicidal effects Ch [10] | Herbicidal effects Po [11] | Phytotoxicity Ze ([7]; corn, foliage treatment, dose 1.6 g ai/10a, evaluated on 14th day after treatment, index per Table 47) | Phytotoxicity Ze ([7]; upland field foliage treatment, dose 0.1 g ai/10a, 14th day after treatment)
1 | Cn1cc(-c2cc(Oc3ccccc3)c(Cl)cc2F)c(=O)cc1C(F)(F)F [Compound No. 6-19, 5-(4-chloro-2-fluoro-5-phenoxyphenyl)-1-methyl-2-trifluoromethyl-4(1H)-pyridone] | 5 | 5 | 5 | 5 | 5 | 5 | 5 | 5 | 5 | 5 | 0 | 0 |  |  |  |  |  |  | 
2 | C#CCn1c(=O)sc2cc(F)c(-c3ccc(C(F)(F)F)n(C)c3=O)cc21 [Compound No. 3-1, 3-[6-fluoro-3-(2-propynyl)-benzothiazolin-2-on-5-yl]-1-methyl-6-trifluoromethyl-2(1H)-pyridone] |  | 5 |  | 5 |  | 5 |  | 5 | 5 | 5 | 0 | 1 |  |  |  |  |  |  | 
3 | COCc1cc2c(-c3ccc(C(F)(F)F)n(C)c3=O)c(F)cc(Cl)c2o1 [Compound No. 4-4, 3-(7-chloro-5-fluoro-2-methoxymethylbenzofuran-4-yl)-1-methyl-6-trifluoromethyl-2-(1H)-pyridone] | 5 |  | 5 |  | 5 |  | 5 |  | 5 | 5 | 0 | 1 | 2 |  |  |  |  |  | 
4 | CCc1cc2c(-c3ccc(C(F)(F)F)n(C)c3=O)c(F)cc(Cl)c2o1 [Compound 4-2] | 5 |  | 5 |  | 5 |  | 5 |  | 5 | 5 | 1 | 2 |  | 5 | 5 | 5 | 5 |  | 
5 | C#CC(C)Oc1cc(-c2ccc(C(F)(F)F)n(C)c2=O)c(F)cc1Cl (stereo not drawn) [1-17] | 5 |  | 5 |  | 5 |  | 5 |  | 5 | 5 | 0 | 0 |  |  |  |  |  |  | 
6 | C=CCN1C(=O)COc2cc(F)c(-c3ccc(C(F)(F)F)n(C)c3=O)cc21 [Compound 2-7] | 5 |  | 5 |  | 4 |  | 5 |  | 4 | 5 | 0 | 1 |  |  |  |  |  |  | 
7 | Cc1cc2c(-c3ccc(C(F)(F)F)n(C)c3=O)c(F)cc(Cl)c2o1 [Compound 4-1] | 5 | 5 | 5 | 5 | 5 | 5 | 5 | 5 | 5 | 5 | 0 | 1 |  | 5 | 5 | 5 | 5 |  | 
8 | CON=Cc1cc(-c2ccc(C(F)(F)F)n(C)c2=O)c(F)cc1Cl [Compound No. 1-72, 5-(1-methyl-6-trifluoromethyl-2(1H)-pyridon-3-yl)-2-chloro-4-fluorobenzaldehydeoxime-O-methyl ether] | 5 |  | 5 |  | 5 |  | 5 |  | 5 | 5 | 0 | 0 | 2 |  |  |  |  |  | 
9 | C#CCN1C(=O)COc2cc(F)c(-c3cn(C)c(C(F)(F)F)cc3=O)cc21 [Compound 7-1] |  | 5 |  | 5 |  |  |  | 5 |  |  |  | 1 |  | 5 | 5 | 5 | 5 | 2 | 
10 | C#CCSc1cc(-c2ccc(C(F)(F)F)n(C)c2=O)c(F)cc1Cl [1-44] |  | 5 |  | 5 |  | 5 |  | 5 |  | 5 |  | 1 |  | 5 | 5 | 5 | 5 |  | 
11 | C#CCN1C(=O)COc2cc(F)c(-c3ccc(C(F)(F)F)n(C)c3=O)cc21 [Compound No. 2-1, 3-[7-fluoro-2,3-dihydro-4-(2-propynyl)-1,4-benzoxazin-3-on-6-yl]-1-methyl-6-trifluoromethyl-2(1H)-pyridone] | 5 |  | 5 |  | 5 |  | 5 |  | 5 |  | 2 |  |  |  |  |  |  |  | 0
